Experimental data reported in US5013722A, “Cholecystokinin analogs for controlling appetite” (Hoffmann-LaRoche Inc., priority 1989, dated 1991).
Where a SMILES comes first, the peptide text is derived from it. [ ]: non-standard residue; d: D form. The star is where a group is joined. Thr(SO3H) = C[C@@H](OS(=O)(=O)O)[C@H](N)C(=O)O; sY = N[C@@H](Cc1ccc(OS(=O)(=O)O)cc1)C(=O)O; N(CH2CH2NHAc)Gly = CC(=O)NCCNCC(=O)O; NMeF = CN[C@@H](Cc1ccccc1)C(=O)O; Nle = CCCC[C@H](N)C(=O)O; For = O=C*

Columns and labels:
[1] = target: T1, receptors in bovine striatum (3H-CCK-8-(SO3 H) binding, central receptor) (Bos taurus, UniProt P79266); assay: In vitro receptor binding assay, bovine striatum homogenate, 3H-CCK-8-(SO3H) radioligand; settings: 0.15 nM radioligand, 30 min, 25° C.; read-out: Bovine Striatum IC50 (inhibition of specific 3H-CCK-8-(SO3H) binding)
T1 construct: receptors in homogenized preparations of rat pancreatic cells and bovine striata; from tissue; host or cells: bovine striatum homogenate (48,000 x g pellet)
T1 sequence (P79266 1-454): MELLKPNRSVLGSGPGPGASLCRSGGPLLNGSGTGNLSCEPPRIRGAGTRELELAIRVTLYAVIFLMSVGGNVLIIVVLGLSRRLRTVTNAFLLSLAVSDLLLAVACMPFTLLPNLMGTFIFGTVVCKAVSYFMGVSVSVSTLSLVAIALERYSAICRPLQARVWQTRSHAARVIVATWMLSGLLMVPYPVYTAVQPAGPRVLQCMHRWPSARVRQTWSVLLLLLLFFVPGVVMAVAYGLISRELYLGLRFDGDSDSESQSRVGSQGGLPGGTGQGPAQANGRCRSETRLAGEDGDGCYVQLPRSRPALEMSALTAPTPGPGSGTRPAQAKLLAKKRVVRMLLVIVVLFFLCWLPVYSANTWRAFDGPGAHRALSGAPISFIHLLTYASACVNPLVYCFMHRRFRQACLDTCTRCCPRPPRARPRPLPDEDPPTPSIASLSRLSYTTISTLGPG
Method: Frozen bovine striatum (approx. 5 g) and fresh rat pancreas (approx. 5 g) cleaned of fat and extraneous tissue were homogenized in HEPES buffer #1 (10 mM HEPES+130 mM NaCl+5 mM MgCl2. pH 7.4) using 35 parts buffer per 1 part tissue on a wet weight/volume basis (approx. 175 ml). The tissue was homogenized 2 x for approx. 15 sec. at 0° C. using a Polytron homogenizer at a setting of 6. The tissue was isolated by centrifugation at 48,000 x g for 10 min. at 0° C. The resulting tissue pellet was resuspended in HEPES buffer #2 (10 mM HEPES+130 mM NaCl+5 mM MgCl2 +1 mg/L phenylmethanesulfonyl fluoride (PMSF)+200 mg/L Bacitracin): 1 part striatal tissue (original wet weight) per 80 parts buffer and 1 part pancreas tissue (original wet weight) per 70 parts buffer.
Incubation was initiated by combining various concentrations of native CCK-8 or peptides of formula I, II and III with ^3 H-CCK-8-(SO3 H) (final conc.=0.15 nM) and tissue homogenate (striatum 0.26 mg protein in 2 ml final volume; pancreas 0.165 mg protein in 1 ml final volume). Samples were incubated for 30 min. at 25° C. and the incubation terminated by pouring the mixture onto a pre-wet Whatman GF/B filter on a Sandbeck Vacuum Filtration Manifold. The incubation tubes were washed with 2×3 ml of ice-cold HEPES Buffer #2 and the wash filtered through the GF/B filter. The filter was air dried for 10 min. and then placed in a scintillation vial with 12 ml of Beckman HP/b Ready-Solv scintillation cocktail. The vials were shaken for 2 hours and then counted using a Beckman Model 7800 liquid scintillation spectrometer. Non-specific binding was determined in the presence of 1 micromole native CCK-8 and subtracted from all samples to determine specific binding. The concentration of ^3 peptide necessary to inhibit 50% of total specific H-CCK-8-(SO3 H) binding (IC50 value) was determined by log-probit analysis.

[2] = target: T2, receptors in rat pancreas (3H-CCK-8-(SO3 H) binding) (Rattus norvegicus, UniProt P30551); assay: In vitro receptor binding assay, rat pancreas homogenate, 3H-CCK-8-(SO3H) radioligand; settings: 0.15 nM radioligand, 30 min, 25° C.; read-out: Rat Pancreas IC50 (inhibition of specific 3H-CCK-8-(SO3H) binding)
T2 construct: receptors in homogenized preparations of rat pancreatic cells and bovine striata; from tissue; host or cells: rat pancreas homogenate (48,000 x g pellet)
T2 sequence (P30551 1-444): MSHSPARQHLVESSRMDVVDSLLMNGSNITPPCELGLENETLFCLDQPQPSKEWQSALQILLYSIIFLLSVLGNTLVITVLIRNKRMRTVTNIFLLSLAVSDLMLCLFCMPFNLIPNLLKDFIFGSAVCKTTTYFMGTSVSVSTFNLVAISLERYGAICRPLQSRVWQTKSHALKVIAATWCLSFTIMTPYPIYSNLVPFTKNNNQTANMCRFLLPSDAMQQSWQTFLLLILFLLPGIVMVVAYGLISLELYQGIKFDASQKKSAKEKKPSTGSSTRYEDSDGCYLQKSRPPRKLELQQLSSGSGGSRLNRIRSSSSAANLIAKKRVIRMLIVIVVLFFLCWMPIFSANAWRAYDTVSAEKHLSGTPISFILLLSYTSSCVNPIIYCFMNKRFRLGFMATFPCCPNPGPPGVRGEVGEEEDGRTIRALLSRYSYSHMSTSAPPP
Method: This strategy was utilized to minimize central nervous system side effects by identifying peptides with peripheral receptor selectivity. […] The tissue was homogenized 2 x for approx. 15 sec. at 0° C. using a Polytron homogenizer at a setting of 6. The tissue was isolated by centrifugation at 48,000 x g for 10 min. at 0° C. […] Samples were incubated for 30 min. at 25° C. and the incubation terminated by pouring the mixture onto a pre-wet Whatman GF/B filter on a Sandbeck Vacuum Filtration Manifold. The incubation tubes were washed with 2×3 ml of ice-cold HEPES Buffer #2 and the wash filtered through the GF/B filter. The filter was air dried for 10 min. and then placed in a scintillation vial with 12 ml of Beckman HP/b Ready-Solv scintillation cocktail. The vials were shaken for 2 hours and then counted using a Beckman Model 7800 liquid scintillation spectrometer.

[3] = tested on: Male Sprague-Dawley (CD) rats, food intake; assay: Two-meal feeding assay, intraperitoneal administration; assay type: in vivo, rat
Method: Male Sprague-Dawley (CD) rats weighing 180-200 grams (Charles River Breeding Laboratories) were acclimated to a 12 h light/dark cycle (6 a.m. to 6 p.m.) in a room kept at 22° C. They were subsequently fasted for two days, weighed, placed in individual cages, and a four-day period of meal training was begun. During this time the rats were given ground laboratory chow (Purina Lab Chow) in jars for one hour from 9:00 a.m. until 10:00 a.m., the jars were removed from 10:00 a.m. to 12:00 p.m., and placed back in the cages from 12:00 until 1:00 p.m. Under this `1-2-1` meal feeding regime most rats learn to eat approximately as much Per day during the two hours they have access to food as rats which have food ad libitum over the entire 24-hour day. On the fourth day, the rats were weighed again, and any which lost more than five grams body weight were excluded from the test. The animals were then distributed into experimental (n=5 to 6) and control groups (n=6-12). but not matched for body weight.
Peptides of the invention were suspended either in saline. if soluble, or in 1% gum arabic, if insoluble, at concentrations of 0 to 320 μg/ml/kg body weight and were administered intraperitonerally 15 min before the first meal on day 5 of meal feeding. The rats were then given their meals as they had been during the previous four days, and the food cups were weighed both before and after each meal to determine food consumption. Food intake was expressed as a mean and standard error of the mean in grams consumed or as a percent of control values for the various groups. The treated groups were compared to the control groups by t-test analysis. […]

[4] = 32 microgm/Kg i.p., 15 min before first meal, mean ± SEM

| Structure (SMILES) | IC50 [1] [nM] | IC50 [2] [nM] | Food Intake 1st Meal [3, 4] | Food Intake 2nd Meal ([3]; 32 microgm/Kg i.p., mean ± SEM) | further results |
| --- | --- | --- | --- | --- | --- |
| CSCC[C@H](NC(=O)[C@H](Cc1c[nH]c2ccccc12)NC(=O)CNC(=O)[C@H](Cc1ccc(OS(=O)(=O)O)cc1)NC(C)=O)C(=O)N[C@H](C(=O)N(C)[C@@H](Cc1ccccc1)C(N)=O)[C@@H](C)OS(=O)(=O)O [Example 14, Ac-Tyr(SO3 H)-Gly-Trp-Met-Thr(SO3 H)-N-methyl-Phe-NH2] (Ac-[sY]GWM[Thr(SO3H)][NMeF]-NH2) |  |  | 36 ± 8 % of Control | 141 ± 9 % of Control | Food Intake 1st Meal ([3]; 3 microgm/Kg i.p.): 86 ± 16 % of Control; Food Intake 2nd Meal ([3]; 3 microgm/Kg i.p.): 120 % of Control; Food Intake 1st Meal ([3]; 320 microgm/Kg i.p.): 4 ± 5 % of Control; Food Intake 2nd Meal ([3]; 320 microgm/Kg i.p.): 121 ± 3 % of Control |
| CCCC[C@H](NC(=O)[C@H](Cc1ccc(OS(=O)(=O)O)cc1)NC(C)=O)C(=O)NCC(=O)N[C@@H](Cc1c[nH]c2ccccc12)C(=O)N[C@@H](CCCC)C(=O)N[C@H](C(=O)N(C)[C@@H](Cc1ccccc1)C(N)=O)[C@@H](C)OS(=O)(=O)O [Example 13, Ac-Tyr-(SO3 H)-Nle-Gly-Trp-Nle-Thr(SO3 H)-N-methyl-Phe-NH2] (Ac-[sY][Nle]GW[Nle][Thr(SO3H)][NMeF]-NH2) |  |  | 21 ± 12 % of Control | 52 ± 13 % of Control | Food Intake 1st Meal ([3]; 1 microgm/Kg i.p.): 36 ± 4 % of Control; Food Intake 2nd Meal ([3]; 1 microgm/Kg i.p.): 71 ± 13 % of Control; Food Intake 1st Meal ([3]; 3 microgm/Kg i.p.): 23 ± 13 % of Control; Food Intake 2nd Meal ([3]; 3 microgm/Kg i.p.): 59 ± 6 % of Control; Food Intake 1st Meal ([3]; 10 microgm/Kg i.p.): 13 ± 1 % of Control; Food Intake 2nd Meal ([3]; 10 microgm/Kg i.p.): 62 ± 8 % of Control; Food Intake 1st Meal ([3]; 16 microgm/Kg i.p.): 27 ± 17 % of Control; Food Intake 2nd Meal ([3]; 16 microgm/Kg i.p.): 45 ± 11 % of Control |
| CSCC[C@H](NC(=O)[C@H](Cc1ccc(OS(=O)(=O)O)cc1)NC(=O)CNCCNC(C)=O)C(=O)NCC(=O)N[C@@H](Cc1cn(C=O)c2ccccc12)C(=O)N[C@@H](CCSC)C(=O)N[C@H](C(=O)N(C)[C@@H](Cc1ccccc1)C(N)=O)[C@@H](C)OS(=O)(=O)O [Example 7, Ac-Aeg-Tyr(SO3 H)-Met-Gly-Trp(For)-Met-Thr(SO3 H)-N-methyl-Phe-NH2] (H-[N(CH2CH2NHAc)Gly][sY]MGW(For)M[Thr(SO3H)][NMeF]-NH2) |  |  | 17 ± 9 % of Control | 95 ± 16 % of Control |  |

More lines, main results first:

| IC50 [1] [nM] | IC50 [2] [nM] | Structure (SMILES) | Food Intake 1st Meal [3, 4] | Food Intake 2nd Meal ([3]; 32 microgm/Kg i.p., mean ± SEM) | further results |
| --- | --- | --- | --- | --- | --- |
| 1000 | 9.4 | CSCC[C@H](NC(=O)[C@H](Cc1ccc(OS(=O)(=O)O)cc1)NC(C)=O)C(=O)NCC(=O)N[C@@H](Cc1cn(C=O)c2ccccc12)C(=O)N[C@@H](CCSC)C(=O)N[C@H](C(=O)N(C)[C@@H](Cc1ccccc1)C(N)=O)[C@@H](C)OS(=O)(=O)O [Example 1, Ac-Tyr(SO3 H)-Met-Gly-Trp(For)-Met-Thr(SO3 H)-N-methyl-Phe-NH2] (Ac-[sY]MGW(For)M[Thr(SO3H)][NMeF]-NH2) | 23 ± 13 % of Control | 55 ± 10 % of Control |  |
| 1750 | 100 | CSCC[C@H](NC(=O)[C@H](Cc1ccc(OS(=O)(=O)O)cc1)NC(C)=O)C(=O)N[C@@H](C)C(=O)N[C@@H](Cc1c[nH]c2ccccc12)C(=O)N[C@@H](CCSC)C(=O)N[C@H](C(=O)N(C)[C@@H](Cc1ccccc1)C(N)=O)[C@@H](C)OS(=O)(=O)O [Example 6, Ac-Tyr(SO3 H)-Met-Ala-Trp-Met-Thr(SO3 H)-N-methyl-Phe-NH2] (Ac-[sY]MAWM[Thr(SO3H)][NMeF]-NH2) | 14 ± 6 % of Control | 114 ± 9 % of Control |  |
| 100 | 44 | CCCC[C@H](NC(=O)[C@H](Cc1ccc(OS(=O)(=O)O)cc1)NC(C)=O)C(=O)N[C@H](C)C(=O)N[C@@H](Cc1c[nH]c2ccccc12)C(=O)N[C@@H](CCSC)C(=O)N[C@H](C(=O)N(C)[C@@H](Cc1ccccc1)C(N)=O)[C@@H](C)OS(=O)(=O)O [Example 4, Ac-Tyr(SO3 H)-Nle-(D)Ala-Trp-Met-Thr(SO3 H)-n-Methyl-Phe-NH2] (Ac-[sY][Nle][dA]WM[Thr(SO3H)][NMeF]-NH2) | 5 ± 5 % of Control | 79 ± 13 % of Control |  |
| 4100 | 4200 | CSCC[C@H](NC(=O)[C@H](Cc1ccc(OS(=O)(=O)O)cc1)NC(C)=O)C(=O)N[C@@H](C)C(=O)N[C@@H](Cc1cn(C=O)c2ccccc12)C(=O)N[C@@H](CCSC)C(=O)N[C@H](C(=O)N(C)[C@@H](Cc1ccccc1)C(N)=O)[C@@H](C)OS(=O)(=O)O [Example 5, Ac-Tyr(SO3 H)-Met-Ala-Trp(For)-Met-Thr(SO3 H)-N-methyl-Phe-NH2] (Ac-[sY]MAW(For)M[Thr(SO3H)][NMeF]-NH2) | 70 ± 2 % of Control | 133 ± 9 % of Control |  |
